The text below walks through data of patent US8816047B2 (Cure DM Group Holdings, LLC, priority 2007, dated 2014).

“Also recorded” adds a separate entry of the source. Like-named read-outs stand apart in the source and are kept apart here. Where a SMILES comes first, the peptide text is derived from it. Bridges are numbered along the chain shown (N, C = ends). Roman numbers before positions name the chains, in order. Where no end group is shown, it is not given here. Bounds are passed on as bounds.

Data set [1] can be described thus: In vitro stability of peptides to proteases in human plasma at 37 C (HPLC/LC-MS). The data set is classed as in vitro ADME. The note with it: human plasma 37° C.; for stability to plasma proteases: 1 hr. As for the experimental part: The peptides were incubated in human plasma, at 37° C. Sample incubations were performed over a period of 1 hr. Individual time points of 1, 5, 10, 30, and 60 minutes were used to follow the reactions. Deactivation of plasma proteases at each time point was achieved by heating the samples at 100° C. for 1 min. Following work-up the plasma treated samples were evaluated by reverse phase chromatography in series with at mass spectrometer, HPLC/LC-MS, against control samples.
Plasma Treated with HIP and Optimized HIP peptides were evaluated over 1, 5, 10, 30 and 60 minutes. For each time point 0.70 ml of plasma was pipetted into a 10 ml test tube. To each was added 0.30 ml of a stock solution of HIP or Optimized HIP peptide (1.66 mg/ml) prepared in phosphate buffered saline. The plasma/peptide samples were incubated at 37° C. for each time point followed by heating at 100° C. to inactivate the proteolytic activity of plasma proteases. Following inactivation, the samples were diluted with 1 ml of H2O, centrifuged and the supernatant liquid removed for analysis.
Samples were analyzed on a C-18 reverse phase column (50 mm×2.0 mm) using 0.07% TFA in H2O as buffer A and 0.07% TFA in acetonitrile as buffer B. A linear gradient of 98% A/2% B progressing to 30% A/70% B over 10 min. was used at a flow rate of 0.4 ml/min. Eluant was monitored by UV at a wavelength of 220 nm and by mass spectroscopy. Comparisons of chromatographic profiles of plasma treated peptides (37° C.) against peptide reference samples and plasma controls were used to determine the relative stability of peptide to plasma treatment.
T=0: Plasma (0.7 ml) plus peptide stock solution (0.3 ml), heat 100° C. 1 min. add 1 ml H2O, centrifuge.
Plasma background control: 0.7 ml plasma plus PBS (0.3 ml), heat 100° C. 1 min, add 1 ml H2O, centrifuge.
Peptide reference heat treated: Peptide stock solution (0.3 ml) plus 0.7 ml PBS, heat 100° C. 1 min., add 1 ml H2O.
Peptide reference no heat: Peptide stock solution (0.3 ml) add 0.7 ml PBS plus 1 ml H2O.

A short description of data set [2]: human plasma. The settings on record: 37° C., up to 60 minutes.
Data set [3] can be described thus: Pharmacokinetics and absolute bioavailability in Sprague Dawley rats, IV and SC 4 mg/kg (LC/MS MS). It is filed as in vivo, rat. The note with it: for C1 h / F / Cmax / Tmax / C0 / plasma levels / AUC / half-life: rat; for F: SQ versus IV; for appearance of animals post-dosing: all times post-dosing, each route; for C0: estimated; for plasma levels: intravenous or subcutaneous; for half-life: read-out: T1/2 (converted). As to the method: The absolute bioavailability and pharmacodynamic study was conducted in Sprague Dawley rats following intravenous and subcutaneous dose administration of HIP2 (FIG. 24), Optimized HIP2B and INGAP. The purpose was to determine the absorption, absolute bioavailability and plasma levels of HIP2, Optimized HIP2B and INGAP in male rats following two different routes of administration.
Six Groups of five male Sprague Dawley rats were administered HIP2, HIP2B or INGAP by intravenous and subcutaneous routes as follows in table below.
Ten serial blood plasma samples (0.03 ml each) were collected from a jugular vein catheter from five animals per group at 5, 10, 15, 30 minutes, 45 minutes followed by samples at 1, 2, 3, 8, and 24 hours post-dose. Plasma was collected into tubes containing EDTA. Following collection, samples were kept chilled on cool packs before centrifugation and transfer to pre-labeled microfuge tubes for storage at −70° C. or below.
Rat plasma samples of 200 μl each were added to a micro centrifuge tube containing 1 ml of acetonitrile (0.07% trifluoroacetic acid, TFA) and stirred with a vortex mixer for 1 min. followed by centrifugation to remove precipitated plasma proteins. The supernatant solution was removed and evaporated, using a Speed Vac, to dryness. To the micro centrifuge tube containing the dry pellet was added 200 μl of 20:80 acetonitrile:water (containing 0.07% TFA). The sample was centrifuged to remove any insoluble material and the supernatant solution transferred to analytical vials for LC/MS MS analysis. The mass spectrometer was calibrated to detect the most abundant daughter ion/ions observed for each of the respective reference samples of HIP2B (M=286.0), HIP2 (M=287.1) and INGAP (M=212.2, 356.1, 373.9). Optimized HIP2B, HIP2 and INGAP plasma samples were analyzed on a C-18 reverse phase column (50 mm×2.0 mm, Varian Pursuit XRS3) using 0.07% TFA in H2O as buffer A and 0.07% TFA in acetonitrile as buffer B. A linear gradient of 98% A/2% B progressing to 100% B over 9 minutes was used at a flow rate of 0.4 ml/min.
The following plasma controls were treated as described above and used to establish a standard concentration curve: • 1. Blank plasma as a background control • 2. Five standard plasma samples containing 6.7×10^4, 6.7×10^3, 6.7×10^2, […] ng/ml of HIP2B, HIP2 and INGAP

The subject of data set [4] is diabetic mice. Put plainly: Streptozocin diabetic mouse model, 28 days twice-daily IP dosing (Example 2). It is filed as in vivo. As for the experimental part: In Vivo Studies. HIP3, HIP1 and HIP2 has been the subject of in vivo studies in mice. […] The subject number was selected to yield a sufficient number of diabetic animals for the study and animals were randomly assigned to study groups. All animals were dosed via intraperitoneal injections twice daily (am and pm) for 28 consecutive days. The timing of dose administration remained consistent (±2 hours) during the dosing phase.
Mice were injected intraperitoneally with streptozocin at 40 mg/kg in citrate buffer, pH 4.5, on 5 consecutive days in an attempt to render them diabetic. […] If the blood glucose level in any animal rose to above 400 mg/dL, the animal was treated with insulin. Every 3 days, at the same time each day, a nick was made on the tail and a drop of blood was collected. Glucose measurements were determined using a glucose meter. Group assignments and dose levels were as follows in Table 1:
Study endpoints included the following: changes in glucose; changes in insulin requirements; and histology of post-mortem pancreata.

As for “Ac-Ile-Gly-Leu-His-Asp-Pro-Thr-Gln-Gly-Thr-Glu-Pro-Asn-Gly-Cys(PEG)-NH2 [HIP2B Cys-PEG]”, the “stability to plasma proteases” value in data set [1] is reported as “stable to plasma proteases for up to 1 hr”.

For (Ac-IGLHDPTQGTEPNGC-NH2)2, the not cleaved entry in data set [2] was “stable to plasma proteases for at least 1 hr”.

For the compound `CC[C@H](C)[C@H](NC(C)=O)C(=O)NCC(=O)N[C@@H](CC(C)C)C(=O)N[C@@H](Cc1c[nH]cn1)C(=O)N[C@@H](CC(=O)O)C(=O)N1CCC[C@H]1C(=O)N[C@H](C(=O)N[C@@H](CCC(N)=O)C(=O)NCC(=O)N[C@H](C(=O)N[C@@H](CCC(=O)O)C(=O)N1CCC[C@H]1C(=O)N[C@@H](CC(N)=O)C(=O)NCC(=O)N[C@@H](CSSC[C@H](NC(=O)CNC(=O)[C@H](CC(N)=O)NC(=O)[C@@H]1CCCN1C(=O)[C@H](CCC(=O)O)NC(=O)[C@@H](NC(=O)CNC(=O)[C@H](CCC(N)=O)NC(=O)[C@@H](NC(=O)[C@@H]1CCCN1C(=O)[C@H](CC(=O)O)NC(=O)[C@H](Cc1c[nH]cn1)NC(=O)[C@H](CC(C)C)NC(=O)CNC(=O)[C@@H](NC(C)=O)[C@@H](C)CC)[C@@H](C)O)[C@@H](C)O)C(N)=O)C(N)=O)[C@@H](C)O)[C@@H](C)O` [HIP2B Cys-Dimer, (Ac-Ile-Gly-Leu-His-Asp-Pro-Thr-Gln-Gly-Thr-Glu-Pro-Asn-Gly-Cys-NH2)2] (I: Ac-IGLHDPTQGTEPNGC-NH2 / II: Ac-IGLHDPTQGTEPNGC-NH2; disulfide I:15-II:15), the “stability to plasma proteases” value in data set [1] is reported as “stable to plasma proteases for at least 1 hr”.

Take Ac-IGLHDPTQGTEPNGE-NH2: the not cleaved result in data set [2] is listed as “completely stable up to 1 hr of plasma incubation”.

Turning to “IGLHDPTQGTEPNG [HIP2, Ile-Gly-Leu-His-Asp-Pro-Thr-Gln-Gly-Thr-Glu-Pro-Asn-Gly]”, the C1 h in data set [3] (IV) and in data set [3] (SQ) was 0 ng/mL throughout. The same compound returned a F in data set [3] of 0.01. Besides, the “appearance of animals post-dosing” value in data set [3] is “appeared normal”. In addition, the Cmax in data set [3] (in vivo, IV) worked out at 29 ng/mL; in data set [3] (in vivo, SQ, n = 5), 32 ng/mL. For the same compound, the Tmax in data set [3] (in vivo, IV) is 4.98 min; in data set [3] (in vivo, SQ) it was 4.98 min. Further, in data set [3] (in vivo, IV), the C0 is 18800 ng/mL. The “plasma levels” value in data set [3] is recorded as “very low levels of HIP2 were observed only at five minutes post dosage; also recorded: Very low levels of HIP2 were detected at 5 minutes; also recorded: observed only at the 5 minute time point”. Besides, the area under the curve (AUC) worked out at 2.7 ng·h/mL in data set [3] (in vivo, SQ, read-out: AUC(0-∝)) and 442 ng·h/mL in data set [3] (in vivo, iv, read-out: AUC(0-∝)). Also, the half-life in data set [3] (in vivo, SQ) is 1.2 min; in data set [3] (in vivo, iv) it was 1.2 min. Further, the results for the “new component (proteolysis product)” value in data set [1] (1 min), in data set [1] (30 min) and in data set [1] (60 min) were 5%, “≈ 50%” and “≈ 70%”, respectively.

Turning to Ac-IGLHDPTQGTEPNGC(PEG)-NH2, the not cleaved entry in data set [2] is on record as “stable to plasma proteases for up to 1 hr”.

Regarding “Ac-IGLHDPTQGTEPNGE-NH2 [HIP3B, Ac-Ile-Gly-Leu-His-Asp-Pro-Thr-Gln-Gly-Thr-Glu-Pro-Asn-Gly-Glu-NH2]”, in data set [1], the “stability to plasma proteases” value is “completely stable”.

“IGLHDPSHGTLPNGS [INGAP, Ile-Gly-Leu-His-Asp-Pro-Ser-His-Gly-Thr-Leu-Pro-Asn-Gly-Ser, reference compound]”: the C1 h in data set [3] (IV) came out at 0 ng/mL. Moreover, in data set [3], the F amounted to 0.00, the “appearance of animals post-dosing” value is reported as “appeared normal” and the “plasma levels” value was “below the lower limit of quantitation; also recorded: undetectable at any time point”. The compound also yielded a C1 h in data set [3] (SQ) of 0 ng/mL. In addition, the C0 in data set [3] (male, Sprague-Dawley, plasma, IV) was 18800 ng/mL. For the same compound, in data set [3] (male, Sprague-Dawley, plasma, iv, footnote *extrapolated, read-out: AUC(0-∝), extrapolated), the area under the curve (AUC) was 440 ng·h/mL. In addition, the half-life in data set [3] (male, Sprague-Dawley, plasma, iv) was < 1.5 min. Moreover, the half-life in data set [3] (male, Sprague-Dawley, plasma, subcutaneous, SQ) is < 1.5 min.

For WIGLHDPTQGTEPNG [HIP1], the “lower mean glucose versus control” value in data set [4] (250 μg IP twice daily for 28 days, STZ diabetic mice) stood at 14.7%. The “differentiation of progenitor cells within the pancreas into new islet structures” value in data set [4] (introduced into diabetic mice) is reported as “stimulate differentiation of progenitor cells within the pancreas into new islet structures”.

In the case of IGLHDPTQGTEPNG, in data set [2], the cleaved bond result was “isoleucine-G, major, 1 min; also recorded: L-H, minor”.

For the compound Ac-IGLHDPTQGTEPNG-NH2, the not cleaved result in data set [2] was “completely stable to plasma proteases after 1 hr of incubation at 37 °C”.

For the compound “IGLHDPTQGTEPNGE [HIP3, Ile-Gly-Leu-His-Asp-Pro-Thr-Gln-Gly-Thr-Glu-Pro-Asn-Gly-Glu]”, in data set [1] (after 60 min, read-out: starting concentration of peptide remaining), the remaining at 1 h, 0.498 mg/ml is ~50%.

What is called Cmax is the peak of the concentration-time curve. In general, Tmax refers to the time from dosing to the highest level. By AUC is commonly meant concentration integrated over time.
